From US11084800B2 (Achillion Pharmaceuticals, Inc., priority 2017, dated 2021) come the findings set out here.

Each structure is given as a SMILES string.

In the test the target is Human Factor D (Homo sapiens (Human), UniProt P00746). The test can be described thus: Human Factor D Assay. The class given is biochemical. The following applies: Table 6; Factor D 80 nM, substrate Z-L-Lys-SBz; read-out: IC50. The method, boiled down:
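Serum-purified Factor D (80 nM final) preincubated 5 min at room temperature with compound in 50 mM Tris, 1 M NaCl, pH 7.5. Z-L-Lys-SBz and DTNB added at 100 μM each; A405 followed every 30 s for 30 min. IC50 from nonlinear regression of rates versus concentration.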

Human Factor D, sequence (P00746 26-253): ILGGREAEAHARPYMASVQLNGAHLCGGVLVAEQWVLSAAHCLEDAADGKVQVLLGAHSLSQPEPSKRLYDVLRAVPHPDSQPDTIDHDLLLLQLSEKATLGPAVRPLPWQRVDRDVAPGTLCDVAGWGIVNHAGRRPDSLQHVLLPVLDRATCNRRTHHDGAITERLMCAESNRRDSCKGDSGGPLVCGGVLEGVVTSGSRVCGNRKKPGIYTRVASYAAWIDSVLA

As to `CC(=O)c1nn(CC(=O)N2[C@H](C(=O)NCCC(C)(C)C)C[C@@]3(C)C[C@@H]23)c2c(C)cc(-c3cnc(C)nc3)cc12` [Compound 80, (1R,3S,5R)-2-(2-(3-Acetyl-7-methyl-5-(2-methylpyrimidin-5-yl)-1H-indazol-1-yl)acetyl)-N-(3,3-dimethylbutyl)-5-methyl-2-azabicyclo[3.1.0]hexane-3-carboxamide], the IC50 is less than 1000 nM.
In the case of `CC(=O)c1nn(CC(=O)N2[C@H](C(=O)NCCOC(F)(F)F)C[C@@]3(C)C[C@@H]23)c2c(C)cc(-c3cnc(C)nc3)cc12` [Compound 81, (1R,3S,5R)-2-(2-(3-Acetyl-7-methyl-5-(2-methylpyrimidin-5-yl)-1H-indazol-1-yl)acetyl)-5-methyl-N-(2-(trifluoromethoxy)ethyl)-2-azabicyclo[3.1.0]hexane-3-carboxamide], the IC50 was less than 1000 nM.
As for `COc1cccc(NC(=O)[C@@H]2C[C@@]3(C)C[C@H]3N2C(=O)Cn2nc(C(C)=O)c3cc(-c4cnc(C)nc4)cc(C)c32)n1` [Compound 82, (1R,3S,5R)-2-(2-(3-Acetyl-7-methyl-5-(2-methylpyrimidin-5-yl)-1H-indazol-1-yl)acetyl)-N-(6-methoxypyridin-2-yl)-5-methyl-2-azabicyclo[3.1.0]hexane-3-carboxamide], the figure is less than 1000 nM.
In the case of `CC(=O)c1nn(CC(=O)N2C[C@H](F)C[C@H]2C(=O)Nc2cccc(O)n2)c2ccc(-c3cnc(C)nc3)cc12` [Compound 83, (2S,4R)-1-(2-(3-Acetyl-5-(2-methylpyrimidin-5-yl)-1H-indazol-1-yl)acetyl)-4-fluoro-N-(6-hydroxypyridin-2-yl)pyrrolidine-2-carboxamide] it was 1000 to 10000 nM; in that of `COCc1ccc(Br)c(NC(=O)[C@@H]2C[C@@]3(C)C[C@H]3N2C(=O)Cn2nc(C(C)=O)c3cc(-c4cnc(C)nc4)cc(COC)c32)n1` [Compound 86, (1R,3S,5R)-2-(2-(3-acetyl-7-(methoxymethyl)-5-(2-methylpyrimidin-5-yl)-1H-indazol-1-yl)acetyl)-N-(3-bromo-6-(methoxymethyl)pyridin-2-yl)-5-methyl-2-azabicyclo[3.1.0]hexane-3-carboxamide], more than 10000 nM; in that of `CC(=O)c1nn(CC(=O)N2[C@H](C(=O)Nc3nc(Br)ccc3C)C[C@@]3(CN4CCNCC4)C[C@@H]23)c2c(C)cc(-c3cnc(C)nc3)cc12` [Compound 88, (1R,3S,5R)-2-(2-(3-Acetyl-7-methyl-5-(2-methylpyrimidin-5-yl)-1H-indazol-1-yl)acetyl)-N-(6-bromo-3-methylpyridin-2-yl)-5-(piperazin-1-ylmethyl)-2-azabicyclo[3.1.0]hexane-3-carboxamide], less than 1000 nM.
As to `CC(=O)c1nn(CC(=O)N2[C@H](C(=O)Nc3nc(Br)ccc3C)C[C@@]3(CN4CC5(CCC5)C4)C[C@@H]23)c2c(C)cc(-c3cnc(C)nc3)cc12` [Compound 89, (1R,3S,5R)-5-(2-Azaspiro[3.3]heptan-2-ylmethyl)-2-(2-(3-acetyl-7-methyl-5-(2-methylpyrimidin-5-yl)-1H-indazol-1-yl)acetyl)-N-(6-bromo-3-methylpyridin-2-yl)-2-azabicyclo[3.1.0]hexane-3-carboxamide], the IC50 is less than 1000 nM.
In the case of `CC(=O)c1nn(CC(=O)N2[C@H]3C[C@@]3(C)C[C@H]2C(=O)Nc2nc(Br)ccc2C)c2c(C3CC3)cc(-c3cnc(C)nc3)cc12` [Compound 90, (1S,3S,5S)-2-(2-(3-acetyl-7-cyclopropyl-5-(2-methylpyrimidin-5-yl)-1H-indazol-1-yl)acetyl)-N-(6-bromo-3-methylpyridin-2-yl)-5-methyl-2-azabicyclo[3.1.0]hexane-3-carboxamide] it was less than 1000 nM.
In the case of `CC(=O)c1nn(CC(=O)N2[C@H](C(=O)Nc3nc(Br)ccc3CN(C)C)C[C@@]3(C)C[C@@H]23)c2ccc(-c3cnc(C)nc3)cc12` [Compound 91] it was less than 1000 nM.

One may read the IC50 as the midpoint of a concentration-inhibition curve.
